Experimental findings from patent publication US20230183310A1, “Polypeptide Compounds and Use Thereof in the Prevention or Treatment of Diabetes or Diabetic Complications” (Shenzhen Turier Biotech Co., Ltd., priority 2020, published 2023) are described below.

The subject of assay [1] is C57BL/6J mice. Put plainly: Oral glucose tolerance (OGTT), repeated glucose loads followed to 24 h after one s.c. dose. In kind it is in vivo. The settings on record: 100 μg/kg subcutaneously; for long-acting hypoglycemic effects compared to semaglutide: four OGTT curves (0-22 h). As for the experimental part:
Eight-week-old male C57BL/6J mice (Model Animal Research Center, Nanjing University) were randomly grouped according to similar blood glucose (assessed by blood samples obtained from the tail tip), with six mice in each group. […] The initial blood samples (fasted blood glucose levels) were obtained after about 4 h. Subsequently, an oral dose of glucose (2 g/kg) was administered and the animals were placed back in their holding cages (t=0). […] The oral dose of glucose was then repeated at 8 h of administration, 12 h of administration and […], and blood glucose changes were detected and followed until 24 hours. The data were processed using the software GraphPadPrism to make a line graph of blood glucose changes, and the area under the curve was calculated to obtain an AUC graph, and the results are shown in FIG. 1.

Assay [2] has as its system db/db diabetic mice. Description: Dose determination in 8-week-old db/db diabetic mice: blood glucose and body weight. Type of assay: in vivo. As for the experimental part: The db/db mice diabetic model (purchased from Nanjing University-Nanjing Institute of Biomedical Research, about 8 weeks, and blood glucose and body weight were measured to ensure the smooth subsequent experiments) was obtained, and the model mice were randomly divided into 12 groups (including polypeptide compounds 3, 8, 13, 15, semaglutide and physiological saline groups), with 6 mice in each group and no difference in basal body weight and blood glucose. Each group was injected subcutaneously with compound 3 (80 and 120 μg/kg, 2 groups), compound 8 (80 and 120 μg/kg, 2 groups), compound 13 (80 and 120 μg/kg, 2 groups), compound 15 (80 and 120 μg/kg, 2 groups), semaglutide (80 and 120 μg/kg, 2 groups) and physiological saline (DN group: normal mice born in the same litter; DC group: db/db mice control group) every day or every other day.
Blood glucose and body weight of mice were measured after daily administration and 6 h fasting on alternate days.

In assay [3] the test system is db/db diabetic mice. Put plainly: Treatment of 12-week-old db/db diabetic mice: blood glucose, OGTT, ITT, ALT/AST, diabetic nephropathy indices. In kind it is in vivo. The settings on record: for weekly blood glucose (hypoglycemic effect): FIG. 4A, blood glucose at normal levels at week 1; for weekly blood glucose (hypoglycemic effect) / improving oral glucose tolerance (OGTT) / improving insulin resistance (ITT) / ALT and AST in serum (hepatoprotective function): 120 μg/kg s.c. daily; for improving oral glucose tolerance (OGTT): FIG. 4B, week 4; for improving insulin resistance (ITT): FIG. 4C, week 5; for ALT and AST in serum (hepatoprotective function): FIG. 4D; for H&E staining of kidneys: glomerular adhesion, ameliorative and therapeutic effects: FIG. 5B; for H&E staining of kidneys: glomerular adhesion, ameliorative and therapeutic effects / PAS staining of kidneys: ameliorative effects on glomerular mesangial region / collagen content (Sirius red, FN and α-SMA staining of kidneys): after 8 weeks; for H&E staining of kidneys: glomerular adhesion, ameliorative and therapeutic effects / collagen content (Sirius red, FN and α-SMA staining of kidneys): compared to semaglutide, SAR425899 and MED C18-acid groups; for PAS staining of kidneys: ameliorative effects on glomerular mesangial region: FIG. 5C; for collagen content (Sirius red, FN and α-SMA staining of kidneys): FIGS. 5D to 5F. The procedure:
Normal mice born in the same litter; DC group: db/db mice control group). Blood glucose and body weight were measured on alternate days after daily administration of the medicament, and water intake and food intake were measured once a week. OGTT was measured at week 4, insulin tolerance (ITT) was measured at week 5, metabolism of mice was examined using mouse metabolic cages at weeks 6-7, and various serological and pathological indices were taken at week 8.
Type 2-diabetes mice were characterized by obesity, insulin resistance, hyperglycemia, dyslipidemia and hepatic fat vacuole-like degeneration.
After 6 weeks of medical treatment, the mice was collected for urine using metabolic cages, and the protein content in the urine was detected using relevant kits. After 7 weeks of medical treatment, the material was taken and blood was used to detect serological indicators such as blood creatinine and urea nitrogen.

The test system of assay [4] is FN protein (fibronectin). Description: Western blot of FN protein in high glucose-induced in vitro renal fibrosis cell model. In kind it is cell-based, rat. The settings on record: 10 μM; 30 mmol/L glucose; 48 h; mesangial and renal epithelial cells. An excerpt:
Hyperglycemia and increased production of glycosylation end products will cause morphological changes such as proliferation and hypertrophy of glomerular mesangial cells, increase in extracellular matrix (ECM) and mesangial expansion, which will eventually lead to the loss of its physiological function. […] Therefore, this example used high glucose to induce MCS mesangial cells and NRK renal epithelial cells to construct an in vitro renal fibrosis cell model for screening medicaments useful for the treatment of diabetic nephropathy. The renal mesangial cell strain GMC and glomerular epithelial cells mTEC used in this example were both cells kept in the applicant's laboratory (both were extracted from rat renal primary cells) and cultured in low sugar medium containing 10% fetal bovine serum. The cells were starved with serum-free culture medium for 24 h when grew to 70% confluence. The cells were divided into the following 9 groups by adjusting the glucose concentration as follows: […]

*1 amine or outer side, *2 acyl side, *3 side chain or, on linkers, in order; H or OH if unused. Primed or numbered codes have the meaning given here. Where no end group is shown, it is not given here. Side-chain parts run from the residue outwards. [ ]: non-standard residue; d: D form. The star is where a group is joined. C20 diacid = O=C(O)CCCCCCCCCCCCCCCCCCC(=O)*; γGlu = O=C(O)[C@H](CCC(=O)[*:2])N[*:1]; PEG2′ = not defined here; Aib = CC(C)(N)C(=O)O

Semaglutide [reference compound]: in assay [1] (four OGTT curve periods (0-22 h), compared to control PBS), the “AUC / improvement in glucose tolerance in all four OGTT curves” value is “significantly reduced (P<0.05)”. Besides, in assay [2] (FIG. 3A, daily s.c., 120 μg/kg, vs saline DC group), the “blood glucose (glucose-lowering effect)” value is reported as “better hypoglycemic effect, after which it was maintained at a more stable normoglycemic level, but its hypoglycemic effect was not significant”. Moreover, the “blood glucose (hypoglycemic effect)” value was “the hypoglycemic effect was not significant” in assay [2] (FIG. 3B, every other day s.c., 80 μg/kg) and “the hypoglycemic effect was not significant” in assay [2] (FIG. 3B, every other day s.c., 120 μg/kg). For the same substance, the “subsequent blood glucose course (long-lasting effect)” value in assay [2] (FIG. 3B, every other day s.c., 120 μg/kg, from day 3 / after days 3-5) is “rebounded on day 3, and its long-lasting effect was not enough”. Besides, the “weekly blood glucose (hypoglycemic effect)” value (from here on “weekly blood glucose”) in assay [3] is given as “significant hypoglycemic effects”.
Regarding “His-(D-Ser)-Gln-Gly-Thr-Phe-Thr-Ser-Asp-Tyr-Ser-Lys-Lys(PEG2-PEG2-γGlu-(CH2)17COOH)-Leu-Asp-Ser-Glu-Arg-Ala-Arg-Asp-Phe-Val-Ala-Trp-Leu-Val-Ala-Gly-Gly-NH2 (H[dS]QGTFTSDYSKKLDSERARDFVAWLVAGG-NH2; not fully specified (residue 13); printed as His-(D-Ser)-Gln-Gly-Thr-Phe-Thr-Ser-Asp-Tyr-Ser-Lys-Lys(PEG2-PEG2-γGlu-(CH2)17COOH)-Leu-Asp-Ser-Glu-Arg-Ala-Arg-Asp-Phe-Val-Ala-Trp-Leu-Val-Ala-Gly-Gly-NH2) [MED C18-acid, compound reported in the prior art, synthesized by the applicant, reference compound]”, in assay [3], the “weekly blood glucose” value was “significant hypoglycemic effects”.
With “His-(D-Ser)-Gln-Gly-Thr-Phe-Thr-Ser-Asp-Lys(Gly-Gly-Ser-Gly-Ser-Gly-γGlu-CO(CH2)18-COOH)-Ser-Lys-Tyr-Leu-Glu-Aib-Lys-Ala-Ala-Gln-Asp-Phe-Val-Glu-Trp-Leu-Lys-Ala-Gly-Gly-Pro-Ser-Ser-Gly-Ala-Pro-Pro-Pro-Ser-NH2 (HXQGTFTSDKSKYLEXKAAQDFVEWLKAGGPSSGAPPPS; D-Ser, Aib; γGlu-C20 diacid lipidation; C-terminal amide; (2)..(2) X=D-Ser; (10)..(10) A side chain of Lys is linked to -Gly-Gly-Ser-Gly-Ser-Gly-AGlu-CO(CH2)18-COOH; (16)..(16) X=Aib) [Compound 14]”, the “long-acting hypoglycemic effects compared to semaglutide” value in assay [1] was “superior and significant long-acting hypoglycemic effects”. For the same substance, the “FN protein expression (Western blot)” value in assay [4] is reported as “inhibited FN expression more significantly”. Also, in assay [3], the “weekly blood glucose” value is recorded as “significant hypoglycemic effects”; the “improving oral glucose tolerance (OGTT)” value is “performed more excellent”; the “improving insulin resistance (ITT)” value is given as “performed more excellent”; the “ALT and AST in serum (hepatoprotective function)” value is recorded as “more excellent hepatoprotective functions”. In assay [3], the “H&E staining of kidneys: glomerular adhesion, ameliorative and therapeutic effects” value is listed as “more significant”; the “PAS staining of kidneys: ameliorative effects on glomerular mesangial region” value is given as “more significant”; the “collagen content (Sirius red, FN and α-SMA staining of kidneys)” value is “improved more significantly”.
Regarding “His-(D-Ser)-Gln-Gly-Thr-Phe-Thr-Ser-Asp-Leu-Ser-Lys-Gln-Lys(CO(CH2)14CH3)-Glu-Ser-Lys-Ala-Ala-Gln-Asp-Phe-Ile-Glu-Trp-Leu-Lys-Ala-Gly-Gly-Pro-Ser-Ser-Gly-Ala-Pro-Pro-Pro-Ser-NH2 (HXQGTFTSDLSKQKESKAAQDFIEWLKAGGPSSGAPPPS; D-Ser; palmitoyl lysine; C-terminal amide; SAR425899; (2)..(2) X=D-Ser; (14)..(14) A side chain of Lys is linked to -CO(CH2)14CH3) [compound reported in the prior art, synthesized by the applicant, reference compound]”, the “weekly blood glucose” value in assay [3] is on record as “significant hypoglycemic effects”.
As for “His-Aib-Gln-Gly-Thr-Phe-Thr-Ser-Asp-Lys(PEG2-PEG2-γGlu-CO(CH2)18CO2H)-Ser-Lys-Tyr-Leu-Glu-Aib-Lys-Ala-Ala-Gln-Asp-Phe-Val-Glu-Trp-Leu-Lys-Ala-Gly-Gly-Pro-Ser-Ser-Gly-Ala-Pro-Pro-Pro-Ser-NH2 (H[Aib]QGTFTSDK([PEG2′-PEG2′-γGlu-C20 diacid])SKYLE[Aib]KAAQDFVEWLKAGGPSSGAPPPS-NH2) [Compound 1]”, the “long-acting hypoglycemic effects compared to semaglutide” value in assay [1] was “superior and significant long-acting hypoglycemic effects”.
On to “His-(D-Ser)-Gln-Gly-Thr-Phe-Thr-Ser-Asp-Lys(PEG2-PEG2-CO(CH2)18CO2H)-Ser-Lys-Tyr-Leu-Glu-Aib-Lys-Ala-Ala-Gln-Asp-Phe-Val-Glu-Trp-Leu-Lys-Ala-Gly-Gly-Pro-Ser-Ser-Gly-Ala-Pro-Pro-Pro-Ser-NH2 (H[dS]QGTFTSDK([PEG2′-PEG2′-C20 diacid])SKYLE[Aib]KAAQDFVEWLKAGGPSSGAPPPS-NH2) [Compound 2]”, for which the “long-acting hypoglycemic effects compared to semaglutide” value in assay [1] is “superior and significant long-acting hypoglycemic effects”.
For the substance “His-Aib-Gln-Gly-Thr-Phe-Thr-Ser-Asp-Lys(Gly-Gly-Ser-Gly-Ser-Gly-γGlu-CO(CH2)18-COOH)-Ser-Lys-Tyr-Leu-Asp-Glu-Arg-Ala-Ala-Gln-Asp-Phe-Iva-Gln-Trp-Leu-Leu-Asp-Gly-Gly-Pro-Ser-Ser-Gly-Aib-Pro-Pro-Pro-Ser-NH2 (HXQGTFTSDKSKYLDERAAQDFXQWLLDGGPSSGXPPPS; Aib, Iva; γGlu-C20 diacid lipidation; C-terminal amide; (2)..(2) X=Aib; (10)..(10) A side chain of Lys is linked to -Gly-Gly-Ser-Gly-Ser-Gly-AGlu-CO(CH2)18-COOH; (23)..(23) X=Isovaline; (35)..(35) X=Aib) [Compound 16]”, in assay [3], the “weekly blood glucose” value is “significant hypoglycemic effects”; the “improving oral glucose tolerance (OGTT)” value is “performed more excellent”; the “improving insulin resistance (ITT)” value is listed as “performed more excellent”; the “ALT and AST in serum (hepatoprotective function)” value is on record as “more excellent hepatoprotective functions”. In assay [3], the “H&E staining of kidneys: glomerular adhesion, ameliorative and therapeutic effects” value is reported as “more significant”; the “PAS staining of kidneys: ameliorative effects on glomerular mesangial region” value is listed as “more significant”; the “collagen content (Sirius red, FN and α-SMA staining of kidneys)” value is “improved more significantly”.
